Results as given in the supplement of paper PMC10307832.

Assays:
Assay in all cases: relative viability (nuclei count vs DMSO), 5 days (fraction); higher = more cells survive
[1] = compound: CS(=O)(=O)c1ccc(-c2cnc(N)c(C(=O)Nc3ccccc3)n2)cc1 [VE-821] + Cc1nc(NC(=O)N2CCC[C@H]2C(N)=O)sc1-c1ccnc(C(C)(C)C(F)(F)F)c1 [Alpelisib] (partner 2 µM)
Procedure, shortened: (§1)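 The day after seeding in 1536-well plates, lung cancer cell lines were treated by pin tool with a single drug, or with a fixed anchor-drug dose together with five library-drug doses (not always all listed) in √10 steps. After 5 days, a combined fix-and-stain solution (final 0.05% Triton X-100, 1% formaldehyde, 1 ug/ml Hoechst) was added. Nuclei counted on 4× images gave relative viability as treated counts over vehicle counts, reported as the median of duplicate plates.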

[2] = compound: CS(=O)(=O)c1ccc(-c2cnc(N)c(C(=O)Nc3ccccc3)n2)cc1 [VE-821] + Cc1nc(Nc2ncc(C(=O)Nc3c(C)cccc3Cl)s2)cc(N2CCN(CCO)CC2)n1 [Dasatinib] (partner 0.075 µM)
Procedure, shortened: as §1

[3] = compound: CS(=O)(=O)c1ccc(C(=O)Nc2ccc(Cl)c(-c3ccccn3)c2)c(Cl)c1 [Vismodegib] + COc1cccc2cc(-c3nc([C@H]4CC[C@H](C(=O)O)CC4)n4ncnc(N)c34)[nH]c12 [OSI-027] (partner 0.5 µM)
Procedure, shortened: as §1

[4] = compound: CS(=O)(=O)c1ccc(C(=O)Nc2ccc(Cl)c(-c3ccccn3)c2)c(Cl)c1 [Vismodegib] + Nc1nc2[nH]cc(CCc3ccc(C(=O)N[C@@H](CCC(=O)O)C(=O)O)cc3)c2c(=O)[nH]1 [Pemetrexed] (partner 0.2 µM)
Procedure, shortened: as §1

| Cell Line | relative viability ([1]; first compound 0.08 µM) | relative viability ([1]; first compound 0.253 µM) | relative viability ([1]; first compound 0.8 µM) | relative viability ([1]; first compound 2.53 µM) | relative viability ([1]; first compound 8 µM) | relative viability ([2]; first compound 0.08 µM) | relative viability ([2]; first compound 0.253 µM) | relative viability ([2]; first compound 0.8 µM) | relative viability ([2]; first compound 2.53 µM) | relative viability ([2]; first compound 8 µM) | relative viability ([3]; first compound 0.08 µM) | relative viability ([3]; first compound 0.253 µM) | relative viability ([3]; first compound 0.8 µM) | relative viability ([3]; first compound 2.53 µM) | relative viability ([3]; first compound 8 µM) | relative viability ([4]; first compound 0.08 µM) | relative viability ([4]; first compound 0.253 µM) | relative viability ([4]; first compound 0.8 µM) | relative viability ([4]; first compound 2.53 µM) | relative viability ([4]; first compound 8 µM) |
| --- | --- | --- | --- | --- | --- | --- | --- | --- | --- | --- | --- | --- | --- | --- | --- | --- | --- | --- | --- | --- |
| NCI-H1734 | 0.804 | 0.745 | 0.468 | 0.758 | 0.553 | 0.51 | 0.455 | 0.479 | 0.425 | 0.33 | 0.603 | 0.598 | 0.727 | 0.577 | 0.605 | 0.433 | 0.399 | 0.433 | 0.429 | 0.414 |
| PC-3 [JPC-3] | 1.05 | 0.957 | 1.02 | 1.05 | 1.04 | 1.06 | 0.967 | 1.07 | 1.02 | 0.907 | 0.823 | 0.756 | 0.718 | 0.728 | 0.673 | 1.05 | 1.03 | 1.13 | 1.16 | 0.651 |
| HCC-827 | 1.05 | 0.972 | 0.784 | 1.07 | 0.825 | 0.322 | 0.294 | 0.289 | 0.421 | 0.262 | 0.759 | 0.708 | 0.726 | 0.767 | 0.789 | 0.246 | 0.283 | 0.563 | 0.284 | 0.267 |
| NCI-H2405 | 0.908 | 0.808 | 0.67 | 0.984 | 0.573 | 0.178 | 0.211 | 0.202 | 0.203 | 0.205 | 0.621 | 0.615 | 0.573 | 0.621 | 0.639 | 1.13 | 1.03 | 1.03 | 1.01 | 1.01 |
| HOP-62 | 1.09 | 0.646 | 0.723 | 0.928 | 0.93 | 0.708 | 0.656 | 0.651 | 0.858 | 0.684 | 0.841 | 0.812 | 0.793 | 0.8 | 0.899 | 0.305 | 0.295 | 0.263 | 0.377 | 0.272 |
| LCLC-97TM1 | 0.315 | 0.244 | 0.22 | 0.292 | 0.222 | 1.1 | 0.763 | 0.756 | 0.838 | 0.639 | 0.673 | 0.522 | 0.525 | 0.507 | 0.523 | 0.205 | 0.171 | 0.149 | 0.176 | 0.178 |
| NCI-H3122 | 0.949 | 0.746 | 0.774 | 0.871 | 0.78 | 0.946 | 0.726 | 0.83 | 0.874 | 0.694 | 0.971 | 0.863 | 0.84 | 0.849 | 0.981 | 0.201 | 0.199 | 0.228 | 0.184 | 0.19 |
| PC-14 | 1.08 | 0.863 | 0.981 | 0.931 | 0.936 | 0.231 | 0.238 | 0.269 | 0.229 | 0.0835 | 0.748 | 0.686 | 0.797 | 0.738 | 0.836 | 0.148 | 0.135 | 0.133 | 0.144 | 0.136 |
| NCI-H2170 | 0.979 | 0.808 | 0.624 | 0.777 | 0.543 | 0.62 | 0.465 | 0.463 | 0.421 | 0.381 | 0.658 | 0.609 | 0.686 | 0.723 | 0.699 | 0.254 | 0.272 | 0.304 | 0.253 | 0.284 |
| HCC-366 | 0.654 | 0.419 | 0.123 | 0.213 | 0.0456 | 0.67 | 0.633 | 0.516 | 0.255 | 0.0491 | 1.32 | 0.888 | 0.77 | 0.929 | 0.775 | 0.164 | 0.17 | 0.186 | 0.166 | 0.158 |
| HARA | 1.05 | 0.912 | 0.688 | 0.926 | 0.704 | 0.271 | 0.221 | 0.315 | 0.254 | 0.253 | 0.702 | 0.47 | 0.529 | 0.492 | 0.466 | 0.243 |  | 0.303 | 0.263 | 0.242 |
| COR-L 105 | 1 | 1 | 0.674 | 0.891 | 0.58 | 0.327 | 0.313 | 0.276 | 0.344 | 0.255 | 0.683 | 0.63 | 0.771 | 0.739 | 0.658 | 1.03 | 1.16 | 1.08 | 1.03 | 1.16 |
| NCI-H1395 | 1.46 | 1.08 | 0.705 | 1.14 | 0.659 | 0.396 | 0.432 | 0.38 | 0.45 | 0.401 | 0.608 | 0.562 | 0.596 | 0.599 | 0.686 | 0.918 | 0.817 | 0.775 | 0.93 | 0.743 |
| EMC-BAC-2 | 0.877 | 0.782 | 0.721 | 0.75 | 0.757 | 0.349 | 0.316 | 0.346 | 0.342 | 0.275 | 0.423 | 0.378 | 0.419 | 0.394 | 0.395 | 0.469 | 0.442 | 0.423 | 0.461 | 0.518 |
| NCI-H1666 | 1.03 | 1.02 | 0.887 | 0.926 | 0.58 | 0.841 | 0.78 | 0.816 | 0.695 | 0.578 | 0.841 | 0.764 | 0.786 | 0.858 | 0.958 | 0.852 | 0.912 | 0.836 | 0.843 | 0.925 |
| H3255 | 0.821 | 0.76 | 0.665 | 0.844 | 0.66 | 0.364 | 0.403 | 0.321 | 0.383 | 0.328 | 0.58 | 0.634 | 0.701 | 0.579 | 0.522 | 0.56 | 0.57 | 0.532 | 0.485 | 0.542 |
